Measurements: publication PMC6461495 (ACS infectious diseases, 2019)

Tested on: synchronous late-stage P. falciparum iRBC
Type: cell-based, Plasmodium falciparum CS2
Conditions: late-stage iRBC, 1, 2, 5, 10, 15 or 20 μM, 24 h post-treatment, flow cytometry

“FAM-βAla-ILGST*LKG*AQQTSAFLK (sidechain bridge or staple) [JDD scramble]” was tested, and the “effect on parasite viability at any concentration tested” value was “no effect on parasite viability”.
